Legend:
[1] = test system: acute HIV infection of T-lymphoid cells (HIV-1 replication); assay: Assay for inhibition of HIV replication (Spread Assay); format: cell-based; details: Human immunodeficiency virus 1, T-lymphoid, 10% FBS
Protocol: Assays for the inhibition of acute HIV infection of T-lymphoid cells were conducted in accordance with Vacca, J. P. et al., Proc. Natl. Acad. Sci. USA 1994, 91: 4096.

wild-type HIV-1 protease = target: T1, wild-type HIV-1 protease (Human immunodeficiency virus type 1 group M subtype B, UniProt P04585); assay: Assay for inhibition of microbial expressed HIV protease; format: biochemical
T1 construct: the protease (which was expressed in Eschericia coli); made in house; host or cells: Escherichia coli
Protocol: Inhibition studies of the reaction of the protease (which was expressed in Eschericia coli) with a peptide substrate [Val-Ser-Gln-Asn-(betanapthyl)Ala-Pro-Ile-Val] (SEQ ID NO: 1). The inhibitor is first preincubated with the enzyme in assay buffer (50 mM sodium acetate, pH 5.5, 100 mM NaCl, and 0.1% BSA) for 30 minutes at room temperature. Substrate is added to 440 micromolar in a total volume of 80 microliters containing 5 picomolar HIV-1 protease, and the reaction is incubated for 1 hour at 30° C. The reaction is quenched by addition of 120 microliters of 10% phosphoric acid, and product formation is determined after separation of product and substrate on a Vydac C18 column connected to an Alliance high performance liquid chromatography system (Waters Corporation). The extent of inhibition of the reaction is determined from the peak area of the products.

Row | SMILES | IC95 [1] [nM] | IC50 (wild-type HIV-1 protease) [nM] | inhibition at 0.5 µM ([1]; @ 500 nM, read-out: Spread - inhibition at a fixed concentration) [%]
1 | COC(=O)N[C@H](C(=O)NCCC[C@@H]1CNC[C@H]1N(CCC(C)C)S(=O)(=O)c1ccc(N)cc1)C(c1ccccc1)c1ccccc1 (relative stereo) [Example 12, N-{3-[(3R*,4S*)-4-{[(4-aminophenyl)sulfonyl](3-methylbutyl)amino}pyrrolidin-3-yl]propyl}-Nα-(methoxycarbonyl)-β-phenyl-L-phenylalaninamide] | 324 | 0.05 | –
2 | COC(=O)N[C@H](C(=O)NCCN[C@@H]1CNC[C@H]1N(CCC(C)C)S(=O)(=O)c1ccc(N)cc1)C(c1ccccc1)c1ccccc1 [Example 1, N-(2-{[(3R,4R)-4-{[(4-aminophenyl)sulfonyl](3-methylbutyl)amino}pyrrolidin-3-yl]amino}ethyl)-Nα-(methoxycarbonyl)-β-phenyl-L-phenylalaninamide] | 495 | 0.7 | –
3 | COC(=O)N[C@H](C(=O)N[C@@H](C)CN[C@@H]1CNC[C@H]1N(CCC(C)C)S(=O)(=O)c1ccc(N)cc1)C(c1ccccc1)c1ccccc1 [Example 2, N-[(2S)-1-{[(3R,4R)-4-{[(4-aminophenyl)sulfonyl](3-methylbutyl)amino}pyrrolidin-3-yl]amino}propan-2-yl]-Nα-(methoxycarbonyl)-β-phenyl-L-phenylalaninamide] | 423 | 0.055 | –
4 | CC[C@@H](CN[C@@H]1CNC[C@H]1N(CCC(C)C)S(=O)(=O)c1ccc(N)cc1)NC(=O)[C@@H](NC(=O)OC)C(c1ccccc1)c1ccccc1 [Example 3, N-[(2S)-1-{[(3R,4R)-4-{[(4-aminophenyl)sulfonyl](3-methylbutyl)amino}pyrrolidin-3-yl]amino}butan-2-yl]-Nα-(methoxycarbonyl)-β-phenyl-L-phenylalaninamide] | 472 | 0.22 | –
5 | CCCCC(CN[C@@H]1CNC[C@H]1N(CCC(C)C)S(=O)(=O)c1ccc(N)cc1)NC(=O)[C@@H](NC(=O)OC)C(c1ccccc1)c1ccccc1 (stereo partly drawn) [Example 4, N-(1-{[(3R,4R)-4-{[(4-aminophenyl)sulfonyl](3-methylbutyl)amino}pyrrolidin-3-yl]amino}hexan-2-yl)-Nα-(methoxycarbonyl)-β-phenyl-L-phenylalaninamide] | 399 | 3.6 | –
6 | COC(=O)N[C@H](C(=O)N[C@H](CN[C@@H]1CNC[C@H]1N(CCC(C)C)S(=O)(=O)c1ccc(N)cc1)CC(C)C)C(c1ccccc1)c1ccccc1 [Example 5, N-[(2S)-1-{[(3R,4R)-4-{[(4-aminophenyl)sulfonyl](3-methylbutyl)amino}pyrrolidin-3-yl]amino}-4-methylpentan-2-yl]-Nα-(methoxycarbonyl)-β-phenyl-L-phenylalaninamide] | 405 | 3.2 | –
7 | COC(=O)N[C@H](C(=O)NC(C)(C)CN[C@@H]1CNC[C@H]1N(CCC(C)C)S(=O)(=O)c1ccc(N)cc1)C(c1ccccc1)c1ccccc1 [Example 6, N-(1-{[(3R,4R)-4-{[(4-aminophenyl)sulfonyl](3-methylbutyl)amino}pyrrolidin-3-yl]amino}-2-methylpropan-2-yl)-Nα-(methoxycarbonyl)-β-phenyl-L-phenylalaninamide] | 291 | 0.05 | –
8 | COC(=O)N[C@H](C(=O)NCCN[C@@H]1CNC[C@H]1N(CC(C)C)S(=O)(=O)c1ccc(N)cc1)C(c1ccccc1)c1ccccc1 [Example 7, N-(2-{[(3R,4R)-4-{[(4-aminophenyl)sulfonyl](2-methylpropyl)amino}pyrrolidin-3-yl]amino}ethyl)-Nα-(methoxycarbonyl)-β-phenyl-L-phenylalaninamide] | 500 | 3.7 | –
9 | COC(=O)N[C@H](C(=O)NCCN[C@@H]1CNC[C@H]1N(C(C)C)S(=O)(=O)c1ccc(N)cc1)C(c1ccccc1)c1ccccc1 [Example 8, N-(2-{[(3R,4R)-4-{[(4-aminophenyl)sulfonyl](isopropyl)amino}pyrrolidin-3-yl]amino}ethyl)-Nα-(methoxycarbonyl)-β-phenyl-L-phenylalaninamide] | – | 22 | 26
10 | COC(=O)N[C@H](C(=O)NCCN[C@@H]1CNC[C@H]1N(Cc1ccccc1)S(=O)(=O)c1ccc(N)cc1)C(c1ccccc1)c1ccccc1 [Example 9, N-(2-{[(3R,4R)-4-{[(4-aminophenyl)sulfonyl](benzyl)amino}pyrrolidin-3-yl]amino}ethyl)-Nα-(methoxycarbonyl)-β-phenyl-L-phenylalaninamide] | 505 | 8.6 | –
11 | COC(=O)N[C@H](C(=O)NCCN(C)[C@@H]1CNC[C@H]1N(CCC(C)C)S(=O)(=O)c1ccc(N)cc1)C(c1ccccc1)c1ccccc1 [Example 10, N-{2-[{(3R,4R)-4-[[(4-aminophenyl)sulfonyl](3-methylbutyl)amino]pyrrolidin-3-yl}(methyl)amino]ethyl}-N-alpha-(methoxycarbonyl)-beta-phenyl-L-phenylalaninamide] | 217 | 15 | –
12 | COC(=O)N[C@H](C(=O)NCCN[C@@H]1CNC[C@H]1N(CCC(C)C)S(=O)(=O)c1ccc(CO)cc1)C(c1ccccc1)c1ccccc1 [Example 11, N-[2-({(3R,4R)-4-[{[4-(hydroxymethyl)phenyl]sulfonyl}(3-methylbutyl)amino]pyrrolidin-3-yl}amino)ethyl]-Nalpha-(methoxycarbonyl)-beta-phenyl-L-phenylalaninamide] | 328 | 0.29 | –
